Test results taken from patent US20060003028A1, “Stable oxidizing bromine composition, method of manufacture and use thereof for biofouling control” (priority 2004, published 2006).

Experiments:
[1] = system: mixed cooling water bacterial culture; experiment: Control experiments: bromide addition alone in phosphate buffer, plate counts; format: cell-based
Method: In order to make certain that the observed biocidal performance enhancement is not caused by the bromide addition alone, a set of control experiments are conducted. […] The differences among all the plate count results are well within the detection limit. Therefore, the performance improvement seen in Examples 1-3 is not caused by the increased concentration of sodium bromide alone.

[2] = in water; cited from earlier work

| Compound | Biocidal effect of bromide addition alone ([1]; 50-150 ppm NaBr in phosphate buffer) | Bacterial counts ([1]; 50 ppm NaBr, 0 minutes) | Bacterial counts ([1]; 50 ppm NaBr, 5 minutes) | Bacterial counts ([1]; 50 ppm NaBr, 10 minutes) | Bacterial counts ([1]; 50 ppm NaBr, 60 minutes) | Bacterial counts ([1]; 100 ppm NaBr, 0 minutes) | Bacterial counts ([1]; 100 ppm NaBr, 5 minutes) | Bacterial counts ([1]; 100 ppm NaBr, 10 minutes) | Bacterial counts ([1]; 100 ppm NaBr, 60 minutes) | Bacterial counts ([1]; 150 ppm NaBr, 0 minutes) | Bacterial counts ([1]; 150 ppm NaBr, 5 minutes) | Bacterial counts ([1]; 150 ppm NaBr, 10 minutes) | Bacterial counts ([1]; 150 ppm NaBr, 60 minutes) | solubility [2] |
| --- | --- | --- | --- | --- | --- | --- | --- | --- | --- | --- | --- | --- | --- | --- |
| [Br-].[Na+] [NaBr, sodium bromide] | not biocidal | 7.3 × 10^5 CFU/ml | 9.3 × 10^5 CFU/ml | 7.0 × 10^5 CFU/ml | 8.0 × 10^5 CFU/ml | 7.3 × 10^5 CFU/ml | 11.0 × 10^5 CFU/ml | 8.2 × 10^5 CFU/ml | 5.4 × 10^5 CFU/ml | 7.3 × 10^5 CFU/ml | 8.4 × 10^5 CFU/ml | 5.2 × 10^5 CFU/ml | 8.3 × 10^5 CFU/ml |  |
| BrBr [elemental liquid bromine, bromine] |  |  |  |  |  |  |  |  |  |  |  |  |  | < 4 g/100 g water |
